Key:
[1] = system: resistant rheumatoid arthritis; settings: oral, 5 to 10 to 15 mg/m^2 within 16 weeks; 36 test persons; cited from earlier work
[2] = system: rheumatoid arthritis; settings: IV, initial 40 mg/m^2, final 26 mg/m^2; 10 test persons; infected plantar or severe nausea; cited from earlier work
[3] = system: patients with RA; test: STEMETRA open-label pilot study, safety and tolerability (adverse events, CTCAE v4.0); format: in vivo, human
Method: (§1) The STEp-down MEthotrexate Therapy in Rheumatoid Arthritis (STEMETRA) was an open-label, monocentric, pilot study with the primary aim of assessing the safety and the tolerability of high dose subcutaneous (SC)-MTX in patients with RA. […] In view of the exploratory nature of this study, the expected enrolment was of 10 patients. Patients received a SC-MTX commercially available formulation (Reumaflex®, Alfasigma, Italy), dispensed as prefilled syringes of 25 mg, 20 mg, and 15 mg. For reaching the dosage of 50 mg at the beginning of the study, patients injected two SC-MTX 25 mg syringes consecutively.
(§2) The protocol treatment schedule comprised administration of SC-MTX 50 mg/week for 4 consecutive weeks, followed by 25 mg/week for 4 weeks, and then 15 mg/week for 4 weeks. All patients received oral supplementation of folinic acid (leucovorin) 12 mg, twelve hours after the injection of SC-MTX. All patients had to be MTX-naïve; previous treatment with other conventional synthetic disease modifying anti-rheumatic drugs (cs)DMARDs was allowed only if they have already been withdrawn, for inefficacy or tolerability, before the baseline visit.
If a patient experience fatigue (with an intensity≥grade 2), he/she could receive a double dose of folinic acid: 12 mg at 12 and 24 hours after SC-MTX, respectively.
All the adverse events (AE) occurred during the study and follow-up periods were recorded according to the Common Terminology Criteria for Adverse Events (version 4.0).

[4] = system: rheumatoid arthritis (RA); settings: treating rheumatoid arthritis; cited from earlier work
[5] = system: patients with RA; test: STEMETRA open-label pilot study, efficacy (DAS28) of step-down SC-MTX; format: in vivo, human
Method: as §1
In the present experimental examples, the Disease Activity Score based on 28 joints (DAS28) testing was carried out according to the protocols described in Fransen J. et al., “Rheumatoid Arthritis measures: Disease Activity Score (DAS), Disease Activity Score-28 (DAS28), Rapid Assessment of Disease Activity in Rheumatology (RADAR), and Rheumatoid Arthritis Disease Activity Index (RADAI)”, Arthritis Rheum 2003; 49, Suppl 9: pages 214 to 224, as well as described in van der Heijde D. M. et al., “Development of a disease activity score based on judgment in clinical practice by rheumatologists”, J Rheumatol. 1993 March, 20(3), pages 579 to 581.
as §2
Eligible patients were≥18 years old affected by rheumatic arthritis (RA), according to the 2010 American College of […]/European league against rheumatism (ACR/EULAR) classification criteria^12, naïve to MTX and with an active disease, defined as a value of disease activity score (DAS)28≥3.2, with at least four tender joints and four swollen joints. Main exclusion criteria were: ongoing or previous treatment with bDMARDs, severe anaemia (defined as haemoglobin<[…]), severe thrombocytopenia (defined as platelets count<100,000/mm^3), severe leucopoenia or neutropenia (defined as white blood cells count<3,000 mm^3 or granulocytes count<1,000 mm^3), severe hepatic dysfunction [defined as aspartate aminotransferase (AST) or alanine aminotransferase (ALT)[…] the upper limit of normal(ULN)], renal function impairment (defined as creatinine clearance<40 mL/min), alcohol intake>70 g/week, pregnancy or breastfeeding, ongoing severe infections, previous infection with Hepatitis B (HBV) or Hepatitis C (HCV), positivity of Quantiferon or Mantoux test.
During each visit, disease activity score based on 28 joints (DAS28) [with both erythrocytes sedimentation rate (ESR) and C-reactive protein (CRP)], simplified disease activity index (SDAI), clinical disease activity index (CDAI), and the Health Assessment Questionnaire (HAQ) were evaluated and calculated as efficacy measures.

[6] = system: rheumatoid arthritis; settings: IV 50 mg/week for 2 to 20 weeks; 14 test persons; oral ulceration, GI symptoms, liver enzyme abnormalities; cited from earlier work
[7] = system: active rheumatoid arthritis; settings: intramuscular, 15 to 45 mg/m^2 within 22 weeks, plus 5 mg folinic acid per week; 27 test persons; recurrent chest infections or inefficacy; cited from earlier work
[8] = system: refractory rheumatoid arthritis; settings: IV 500 mg/m^2, 24 weeks, plus oral folinic acid 25 mg/m^2; 8 test persons; inefficacy, GI intolerance or sciatica; cited from earlier work
[9] = cited from earlier work
[10] = system: patients; settings: long-term data; cited from earlier work
[11] = nine patients, study and follow-up periods
[12] = week 12, nine patients, step-down SC-MTX 50/25/15 mg/week, oral folinic acid 12 mg

## CN(Cc1cnc2nc(N)nc(N)c2n1)c1ccc(C(=O)N[C@@H](CCC(=O)O)C(=O)O)cc1 [MTX, (2S)-2-[[4-[(2,4-diaminopteridin-6-yl)methyl-methylamino]benzoyl]amino]-pentanedioic acid]
[1]
  test persons who discontinued the treatment due to high toxicity: 33%
[2]
  test persons who did not complete the study: Two
[3]; Patient #6, week 4, resolved spontaneously, normal at week 8
  increase of alanine aminotransferase (ALT): < 2 ULN
[3]; [11]
  number of patients in whom AEs occurred: 4
  total number of AEs: 5
[3]; nine patients, whole study
  severe AEs: none
[3]; week 4
  number of patients with a mild (and transitory) increase in ALT: one
[3]; while taking SC-MTX 50 mg/week
  AEs occurring in the first 4 weeks: none
[4]
  efficacy rate as a monotherapy: about 35%
[5]; step-down SC-MTX regimen, discussion summary
  patients with a significant reduction of DAS28: ~90%
[5]; week 12, 8 out of 9 patients, step-down SC-MTX 50/25/15 mg/week, oral folinic acid 12 mg
  patients showing a reduction in DAS28>1.2 from baseline: 88.8%
[5]; week 12, nine patients, SC-MTX 50 mg/week 4 weeks, then 25 mg/week 4 weeks, then 15 mg/week 4 weeks, oral folinic acid 12 mg
  patients who achieved DAS28 remission: 44.4%
[5]; [12]
  patients showing moderate disease activity (DAS28): 11.1%
  patients who reached low disease activity (DAS28): 22.2%
  patients who still had high disease activity (DAS28): 22.2%
[6]
  test persons who had to reduce or discontinue the treatment due to toxicity: 35%
[7]
  test persons who discontinued the treatment: 18.5%
[8]
  test persons who withdrew the treatment: 37%
[9]; oral (OR-MTX)
  dose over which absorption is known to plateau: 15 mg
[9]; oral
  dosage at which oral absorption starts to plateau: 15 mg/week
[10]
  patients who could experience liver enzymes elevation: more than 10%
  patients who had to stop MTX because of liver enzymes elevation: less than 5%
